Experimental data: US9732156B2, “Methods of treating rheumatoid arthritis using antibodies to matrix metalloproteinase 9” (Gilead Biologics, Inc., priority 2012, dated 2017)
Blank lines part the entries; values can stand above or below the molecule they belong to.

Tests used:
[1] = tested on: UC; conditions: cited from earlier work
[2] = tested on: collagen-induced arthritis; assay: Collagen-induced arthritis (CIA) rat model of established disease; type: in vivo; conditions: terminal serum, ELISA
Procedure: This example provides additional characterizations of the animals in example 7 that were treated with either vehicle, AB0041 (in the rat model) or AB0046 (in the mouse model) at 2, 10, or 50 mg/Kg, Enbrel at 10 mg/Kg, or methotrexate (MTX) at 0.5 mg/Kg.
In addition to clinical scoring in Table 6 that was conducted in example 7, paw swelling, ankle diameter and body weights of the treated animals were measured. The measurements were conducted once a week before randomization and three times a week thereafter.
In addition, hind limbs were examined microscopically for soft-tissue changes (edema, tissue/vessel necrosis, inflammatory cell infiltration, and fibroplasias) and cartilage and bone changes (cartilage erosion, bone erosion, periosteal bone formation, synovitis, pannus formation, and joint destruction). […] The severity scores were based on global changes in each limb.
For anti-TNF-alpha scoring, the entire region of the limb anterior to the tarsal-metatarsal joint was scored. Anti-CD68 staining was evaluated using 3-4 images per limb of synovial membranes in the joints formed by the talus bone, with the scores of each membrane averaged and the value assigned as the overall inflammation score. […] Also, MMP9-expressing cells were identified as osteoclasts and cells of the monocyte/macrophage lineage.
Further, serum panel analyses of terminal serum samples were characterized using ELISA. […] AB0046 titers were measured in terminal serum samples.

[3] = tested on: DSS-induced colitis; assay: DSS-induced colitis model, treatment of established disease (Example 4); type: in vivo, mouse
Text: The dextran sodium sulfate (DSS)-induced model of colitis is an accepted model for evaluation of inflammatory bowel disease therapeutics. In this model, oral administration of DSS to mice or rats results in damage to the colonic mucosa. Animals receiving DSS develop bloody diarrhea and lose weight. The inflammation and tissue degradation observed in this model is restricted to the mucosa and generally affects the entire colon. […] The localization of disease and the pathology observed in this model is considered to be reminiscent of human ulcerative colitis (UC), including similar inflammatory cell infiltrate, ulceration, and crypt abscesses.
AB0046 was used in the DSS colitis model (in a 14-day treatment model). Treatment began after 5 days of oral exposure to 3% DSS in drinking water, according to the following experimental design: disease induction with 3% DSS was carried out beginning at day 0 through day 5, with treatment beginning at day 6 (treatment details for animals in groups 1-5 given in Table 2, below); animals were sacrificed at day 14. Etanercept (marketed under the trade name ENBREL®) was used as a reference compound for the therapeutic effect of anti-TNFα therapy in this model. AC-1, an irrelevant antibody of matched isotype (IgG1), was used as a control.
The course of disease was evaluated by video endoscopy (at days 6, 10, and 14), animal weight measurements, observation of stool consistency, and post-study histopathology analysis of colons.
Video endoscopy of the lower colon was performed in a blinded fashion using a small animal endoscope; colitis was scored visually on a scale of 1-4 based on the degree of ulceration, friability, and vascularity present in the tissue. Each mouse was assigned a single score corresponding to the most severe damage observed throughout the entire length of the colon examined.
At study termination, the majority of the distal colon was excised from each animal, formalin-fixed, then embedded in paraffin and sectioned for histology. Slides were stained with hematoxylin and eosin and examined by a board-certified veterinary pathologist blinded as to treatment groups. Tissues were scored for inflammation, edema, and mucosal necrosis according to the scoring scale of 1-4 for each parameter. Sum pathology scores were calculated by summing the three individual parameter score means (inflammation, edema and necrosis).
Body weight and the incidence of diarrhea were recorded daily over the course of the study. The evaluation of body weight changes was performed by calculating the area under the curve (AUC) with the trapezoidal rule method; a similar calculation of AUC for stool consistency was performed by assigning incidence of diarrhea a score of 100 and lack of diarrhea a score of 0.
A trend for reduction of systemic disease-associated cytokines by AB0046 was observed. […] Serum MMP-9 levels were not induced (i.e., no difference between no DSS and vehicle groups; interference by drug antibody cannot be ruled out for MMP9 serum level measurements).

[4] = tested on: Lewis rats; conditions: rat, in vivo
Procedure: AB0041 was evaluated for safety in Lewis rats in comparison to the pan-MMP inhibitor, Marimastat, in a 28-day study.
Six rats per group were intravenously administered twice per week with either AB0041 at 50 mg/kg or Vehicle-A (10 mM sodium phosphate, pH 6.5, 140 mM sodium chloride, 0.01% Tween20). In addition, six rats per group were treated with Marimastat or Vehicle-M (50% DMSO/50% water) through a surgically implanted subcutaneous Alzet pump (Alzet, Cupertino, Calif.), which delivered at a rate of 2.5 μl/hour for a period of 28 days. The Marimastat release rate was between 6.8 to 5.7 mg/kg/day.
Animals were observed and scored daily for signs of MSS, such as reluctance to move and avoidance of the use of the hind feet. The following system was used to score resting posture, gait and willingness to move: resting posture was scored as 0 (normal), 1 (resting on one foot) or 2 (resting on neither one foot nor two feet). Gait was scored as either 0 (normal), 1 (avoids use of one hind foot) or 2 (avoids use of both hind feet). Willingness-to-move upon stimulation was scored as either 0 (normal movement), 1 (somewhat reluctant to move), 2 (moderately reluctant to move) or 3 (very reluctant to move). In addition, the body weights were recorded twice weekly.
Total scores were calculated as the sum of gait score, resting posture score and willingness-to-move score for each animal. Mean total scores per group were calculated as the average of the total scores from all individual animals per group per day.
Serum was collected from all rats on one day before and days 1, 7, 10, 14, 17, 21, 24, 28 post administration. Serum was centrifuged at 10,000×g for 10 minutes and collected for storage at −20° C. Serum was subject to multianalyte serum protein analysis (RodentMAPv2.0, IDEXX Laboratories).
Tissues and limbs from the rats were harvested and fixed in 10% neutral buffered formalin for histopathologic analysis using hematoxylin and eosin (H&E).

Molecule: Infliximab: chimeric therapeutic anti-TNF-alpha antibody Remicade (infliximab)
patients achieving long-term remission completely free of corticosteroids [1]: 26% | patients achieving remission by week 8 and remaining in remission through 54 weeks [1]: 20% | patients failing to maintain response over 30 or 54 weeks [1]: approximately 60%

Molecule: ENBREL [reference compound]
serum markers (TIMP-1, GM-CSF, MIP-2, MIP-1β, M-CSF-1, OSM, CXCL10, MCP-5, IL-12p70, INF-γ, IL-12, IL-7) [2]: No reduction of serum markers | reduction of the incidence of diarrhea ([3]; AUC, did not reach statistical significance): similar | mean endoscopy score ([3]; Day 14 (and Day 10), vs Vehicle and AC-1, AB0046 30 mg/kg IP, ENBREL 10 mg/kg IP): significant improvement in endoscopy scores | histopathology: inflammation, edema, mucosal necrosis ([3]; colons at termination, compared to vehicle): significantly reduced all three aspects of disease pathology | MMP9 expression in colon by IHC ([3]; three colons per group): Reduction of MMP9

Molecule: CN(Cc1cnc2nc(N)nc(N)c2n1)c1ccc(C(=O)N[C@@H](CCC(=O)O)C(=O)O)cc1 [methotrexate, reference compound]
serum markers (TIMP-1, GM-CSF, MIP-2, MIP-1β, M-CSF-1, OSM, CXCL10, MCP-5, IL-12p70, INF-γ, IL-12, IL-7) [2]: consistent increase in these markers

average daily total MSS score ([4]; Lewis, 18 day): above 4.0 | average MSS score ([4]; Lewis, 25 day): 5.8 | fibrosis and synovitis in limbs [4]: Fibrosis and synovitis were observed | rats with slight limping, avoidance of one hind foot (gait score=1) [4]: five | severity of fibrosis [4]: mild to severe | severity of synovitis [4]: mild
Molecule: CNC(=O)[C@@H](NC(=O)[C@H](CC(C)C)[C@H](O)C(=O)NO)C(C)(C)C [Marimastat]
H&E staining of hind knee joints [4]: histopathological evidence of fibroplasia was seen
